Reference: US20070286892A1, “COMPOSITIONS AND METHODS FOR PREVENTING OR REDUCING POSTOPERATIVE ILEUS AND GASTRIC STASIS IN MAMMALS” (priority 2006, published 2007)

Key:
[1] = tested on: adhesions; details: local delivery in gel (NaCMC) formulations at the surgical site; cited from earlier work
[2] = tested on: gastric emptying and intestinal motility; assay: Charcoal transit model of postoperative ileus after abdominal surgery with cecal manipulation; type: in vivo, rat; details: charcoal distance 4 h after oral meal, percent of full intestinal length, male Sprague Dawley rats
Description: The charcoal transit model is an accetable and established model to study the effects of abdominal surgery on intestinal motility. We followed the procedure as described by De Winter et al. (1997) (Reference: Effect of adrenergic and nitrergic blockade on experimental ileus in rats. British Journal of Pharmacology (1997) 120, 464-468. Benedicte Y. De Winter, Guy E. Boeckxstaens, Joris G. De Man, Tom G. Moreels, Arnold G. Herman & Paul A. Pelckmans). The model simulates the abdominal procedure in human and tests for gastric emptying and intestinal motility by the transfer of a charcoal meal fed to the animals.
Male Sprague Dawley rats, weighing 250-275 g (8 in group) were anesthetized with a xylazine/ketamine cocktail, injected IM, the abdomen was shaved and disinfected with alcohol and Betadyne. A 2.5 cm incision was made from the xyphoid process caudally. The intestinal contents was exteriorized onto wet gauze. The cecum was manipulated gently for 1 minute. The abdominal contents were replaced, the treatment was applied and the body wall closed with 4-0 PDS for the fascia and muscle layers. The skin was closed with wound clips. Treatment groups included two control groups, surgery (incision only) and naïve, and […], high and low dose of Tranilast gel, high and low dose of Tranilast ORC, as well as gel alone and ORC alone. 8 rats were included in each group with a total of 64 rats. The high and low dose Tranilast gel and gel alone treatments were prepared as described in Example 1. The high and low dose Tranilast ORC and ORC alone treatments were prepared as described in Example 2.
The rats were treated with an oral solution of charcoal (10%) in acacia gum (2%). Four hours following oral administration rats were euthanized with Euthasole. The intestines were exteriorized and the distance traveled by the charcoal meal was measured as well as the full length of the intestines (from the pylorus through the anus). Results are expressed as percent of distance traveled relative to the full length of the intestines.

SMILES: COc1ccc(/C=C/C(=O)Nc2ccccc2C(=O)O)cc1OC [Tranilast]
- Effects on wound healing at the surgical sites [1]: no obvious effects on wound healing
- % GI Transfer ([2]; Gel preparation (3% Na-CMC), Tranilast high dose 18.0 mg applied locally): 93.04%
- % GI Transfer ([2]; Gel preparation (3% Na-CMC), Tranilast low dose 1.8 mg applied locally): 90.68%
- % GI Transfer ([2]; ORC preparation (INTERCEED mesh), Tranilast high dose 18.0 mg applied locally): 62.18%
- % GI Transfer ([2]; ORC preparation (INTERCEED mesh), Tranilast low dose 1.8 mg applied locally): 46.11%
